This is an account of results in paper PMC4374931 (PLoS ONE, 2015).

As usually defined, the viability is a read-out of living cells in per cent, often relative to untreated cells.

Data set [1] concerns androgen receptor. The conditions noted are these: cited from earlier work.
The target in data set [2] is T1, human androgen receptor (Homo sapiens, UniProt P10275). The experiment in a line: Gene reporter assay in AIZ-AR cells, antagonist mode with testosterone (10 nM). Type of data set: cell-based.
Experimental: (§1) AIZ-AR cells were seeded in 96-well plates at density 5x10^4 cells per well. […] After the treatments, cells were lysed and luciferase activity was measured in 96-well plate format using Tecan Infinite M2000 plate luminometer.
(§2) Dose-response analyses assays were performed in two different experimental layouts. […] Where appropriate, IC50 (half maximal inhibitory concentration) values were calculated.
Data set [3] addresses T1, human androgen receptor. The experiment in a line: Gene reporter assay in AIZ-AR cells, agonist mode (luciferase). In kind it is cell-based. (In general: Reporter assays use an easily measured gene product as a stand-in for the process of interest.)
Experimental: as §1, §2
Data set [4] addresses T1, human androgen receptor. The experiment in a line: Gene reporter assay in AIZ-AR cells, antagonist mode with DHT (100 nM). Type of data set: cell-based.
Experimental: as §1, §2
The target of data set [5] is androgen receptor. The arrangement: method as in Wilkinson et al. To be noted: published data; ref Wilkinson et al.; cited from earlier work.
Data set [6] has as its target androgen receptor. The arrangement: method as in Sedlak et al. To be noted: published data; ref Sedlak et al.; cited from earlier work.
A further data set is described as follows: in vitro. In kind it is cell-based. To be noted: human.
A further data set concerns firefly luciferase. The experiment in a line: Inhibition of firefly luciferase in cell lysates. To be noted: compounds 10 μM added to lysates of cells treated with 100 nM DHT; data not shown. In kind it is biochemical. On the procedure: AIZ-AR cells were treated with 100 nM DHT for 24 hours. Cell lysates containing firefly luciferase, having a catalytic activity corresponding to model ligand-treated cells, were isolated. Tested compounds (10 μM) were added to cell lysates and luciferase activity was measured.

Structures are written as SMILES. Where two headings read alike, the source gives them in different places.

T1 sequence (P10275 whole entry): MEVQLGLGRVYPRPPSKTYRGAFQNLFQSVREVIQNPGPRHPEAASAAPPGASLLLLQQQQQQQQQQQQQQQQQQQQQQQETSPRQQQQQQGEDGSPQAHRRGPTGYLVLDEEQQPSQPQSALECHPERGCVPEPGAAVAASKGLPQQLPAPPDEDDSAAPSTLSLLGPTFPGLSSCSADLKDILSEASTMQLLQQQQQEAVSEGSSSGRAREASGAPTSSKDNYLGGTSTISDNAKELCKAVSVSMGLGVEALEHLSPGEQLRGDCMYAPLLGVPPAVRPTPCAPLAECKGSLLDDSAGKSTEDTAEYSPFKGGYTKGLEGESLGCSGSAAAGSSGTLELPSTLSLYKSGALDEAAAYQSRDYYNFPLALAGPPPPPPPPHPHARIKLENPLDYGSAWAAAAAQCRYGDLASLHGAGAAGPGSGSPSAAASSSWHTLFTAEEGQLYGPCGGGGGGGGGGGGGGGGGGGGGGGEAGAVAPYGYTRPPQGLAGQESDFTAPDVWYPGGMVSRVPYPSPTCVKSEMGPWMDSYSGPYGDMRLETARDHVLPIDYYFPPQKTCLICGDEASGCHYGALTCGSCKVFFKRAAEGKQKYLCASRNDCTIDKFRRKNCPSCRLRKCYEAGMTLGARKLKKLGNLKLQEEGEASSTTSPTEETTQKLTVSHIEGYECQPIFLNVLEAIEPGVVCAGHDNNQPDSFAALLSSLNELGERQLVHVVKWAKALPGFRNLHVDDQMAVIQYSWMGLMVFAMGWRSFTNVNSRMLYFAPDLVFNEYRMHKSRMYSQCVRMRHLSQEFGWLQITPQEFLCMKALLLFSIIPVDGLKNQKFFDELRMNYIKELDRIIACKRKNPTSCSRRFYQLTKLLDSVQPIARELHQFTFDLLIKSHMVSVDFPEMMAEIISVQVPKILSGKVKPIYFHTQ
Experimental for in vitro: AIZ-AR cells were seeded in 96-well plates at density 5x10^4 cells per well. […] Following the incubation, MTT assay was measured spectrophotometrically at 540 nm using Tecan Infinite M2000 plate luminometer.

For the molecule `C[C@]1(O)CC[C@H]2[C@@H]3CCC4=CC(=O)CCC4=C3C=C[C@@]21C` [R1881], in the data set with androgen receptor [1], the “Response of AR-LUX cell line (induction)” value is on record as “maximally five-fold induction”.
With `CC/C(=C(\c1ccc(O)cc1)c1ccc(OCCN(C)C)cc1)c1ccccc1` [4-hydroxytamoxifen], at human androgen receptor [2] (Clone 8, 24 h), the “Log IC50 (Testosterone 10 nM)” value was over -5.00. For the same molecule, the “Log IC50 (Testosterone 10 nM)” value on human androgen receptor [2] (Clone 14, 24 h) is reported as over -5.00. At human androgen receptor [3] (Clone 8, 24 h), the “Log EC50” value is listed as over -5.00. The “Log EC50” value on human androgen receptor [3] (Clone 14, 24 h) was over -5.00. At human androgen receptor [4] (Clone 8, antagonist mode, 24 h), the “Log IC50 (DHT 100nM)” value was over -5.00. Further, on human androgen receptor [4] (Clone 14, antagonist mode, 24 h), the “Log IC50 (DHT 100nM)” value is given as over -5.00. Besides, the “Literature Log EC50” value at androgen receptor [5] was over -5.00. Further, on androgen receptor [6], the “Literature Log EC50” value is over -5.00. In “in vitro”, the viability at 24 h, 0.1 nM came to 100%; the viability at 24 h, 1 nM was determined as 101.8 ± 1%; the viability at 24 h, 10 nM stood at 100 ± 5.4%; the viability at 24 h, 100 nM came to 104 ± 4.4%. Besides, in “in vitro”, the viability at 24 h, 1 μM came out at 106 ± 3.8% and the viability at 24 h, 10 μM stood at 9.2 ± 7.7%.
Regarding `C[C@]12CCC(=O)C=C1CC[C@@H]1[C@@H]2[C@@H](O)C[C@]2(C=O)[C@@H](C(=O)CO)CC[C@@H]12` [Aldosterone, aldosterone], the “effect on luciferase activity in agonist mode” value at human androgen receptor [3] (24 h) is recorded as “did not significantly increased luciferase activity”. In addition, the “Log EC50” value at human androgen receptor [3] (Clone 8, 24 h) is listed as -6.03 ± 0.04; at human androgen receptor [3] (Clone 14, 24 h) it was -6.11 ± 0.02. Besides, the “Literature Log EC50” value on androgen receptor [5] and at androgen receptor [6] was over -5.00 each time. Further, the viability at 24 h, 10 μM in the data set “in vitro” (log c -5, 24 h, MTT, read-out: % of viability) was 97 ± 5.4%. Moreover, in “in vitro” (log c -6, 24 h, MTT, read-out: % of viability), the viability at 24 h, 1 μM turned out to be 98.6 ± 0.8%. Also, the viability at 24 h, 100 nM in the data set “in vitro” (log c -7, 24 h, MTT, read-out: % of viability) came to 99 ± 1.4%. The viability at 24 h, 10 nM in “in vitro” (log c -8, 24 h, MTT, read-out: % of viability) is 99.4 ± 1%. The viability at 24 h, 1 nM in the data set “in vitro” (log c -9, 24 h, MTT, read-out: % of viability) worked out at 110 ± 1.4%. Moreover, the viability at 24 h, 0.1 nM in “in vitro” (log c -10, 24 h, MTT, read-out: % of viability) turned out to be 100%.
`O=c1c(-c2ccc(O)cc2)coc2cc(O)cc(O)c12` [Genistein, genistein]: the “influence on firefly luciferase catalytic activity” value in the data set on firefly luciferase is on record as “significantly influenced luciferase activity”. For the same molecule, on human androgen receptor [3] (Clone 8, 24 h), the “Log EC50” value is on record as -6.62 ± 0.42. Besides, the “Log EC50” value at human androgen receptor [3] (Clone 14, 24 h) is recorded as -6.79 ± 0.23. For the same molecule, the agonist-induced luciferase activity result on human androgen receptor [4] (antagonist mode, 10^-5 M, probably due to luciferase inhibition) is recorded as “massive drop”. Also, the “effect on agonist-induced luciferase activity in antagonist mode” value on human androgen receptor [4] (with DHT (100 nM) or testosterone (10 nM) as agonist, 24 h) was “strongly augmented agonist-induced luciferase activity”. Also, the “Literature Log EC50” value at androgen receptor [5] was over -5.00. The “Literature Log EC50” value at androgen receptor [6] was over -5.00. Also, in the data set “in vitro”, the viability at 24 h, 0.1 nM stood at 100%; the viability at 24 h, 1 nM turned out to be 96.5 ± 2.4%; the viability at 24 h, 10 nM was found to be 96.7 ± 3.3%; the viability at 24 h, 100 nM turned out to be 103 ± 7.5%. In “in vitro”, the viability at 24 h, 1 μM stood at 103 ± 7.5% and the viability at 24 h, 10 μM worked out at 120 ± 6.4%.
